Here are results for eight compounds from PubChem BioAssay (NCI).

Several values for one entry are separate records, joined by “and”; a condition that tells them apart may be missing. Equal entries are not always repeated.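 Values below derive from 48-hour exposures of cells grown in 96-well plates, with endpoints linearly interpolated between the two concentrations bracketing the appropriate inhibition level. At the GI50, growth is halved. TGI: total growth inhibition.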

Assay in all cases: growth of human tumour cells (NCI), 48 h
For experiment [1], the system named is RXF 393 renal.
The subject of experiment [2] is SF-268 CNS.
In experiment [3] the test system is SF-295 CNS.
For experiment [4], the system named is UACC-257 melanoma.
In experiment [5] the test system is EKVX NSCLC.
The subject of experiment [6] is SNB-19 CNS.
The test system of experiment [7] is HCT-15 colon.
Experiment [8] has as its system T-47D breast.
Experiment [9] concerns BT-549 breast.
Experiment [10] has as its system HCT-116 colon.

For the compound `O=C(O)C1C2C=CC(O2)C1C(=O)NCc1ccccn1` (stereo not given), the TGI in experiment [1], in experiment [2], in experiment [3], in experiment [4], in experiment [5] and in [6] was more than 100 µM throughout. The TGI in experiment [7], in experiment [8], in experiment [9] and in [10] was more than 100 µM throughout.

Take `O=C1/C(=C/c2ccc(Br)cc2)COc2ccc(O)c(O)c21`: the GI50 in [1] was 1.1 µM; in experiment [2], 1.26 µM; in experiment [3] it was 2.57 µM; in experiment [4] it was 1.71 µM; in experiment [5], 1.45 µM; in [6], 1.38 µM. In addition, the GI50 in experiment [7] was 0.302 µM; in [8], 0.906 µM; in experiment [9], 1.2 µM; in experiment [10], 0.892 µM. In addition, the TGI in [1] turned out to be 2.43 µM; in [2], 3.4 µM; in experiment [3], 6.83 µM; in [4] it was 6.78 µM; in experiment [5], 3.14 µM; in experiment [6] it was 3.05 µM. Besides, the TGI in [7] was 1.51 µM; in [8] it was 3.16 µM; in experiment [9] it was 3 µM; in experiment [10], 2.4 µM.

Turning to `CCN(CC)CCCC(CNc1ccnc2cc(Cl)ccc12)c1ccc(Cl)cc1` (stereo not given), the GI50 was 1.4 µM and 1.03 µM in experiment [1]; 1.56 µM and 1.71 µM in experiment [2]; 1.79 µM and 1.35 µM in [3]; 1.97 µM and 0.583 µM in [4]; 2.11 µM and 1.67 µM in [5]; 1.9 µM and 2.73 µM in experiment [6]. The GI50 in experiment [7] was 0.535 µM and 0.984 µM; in experiment [8], 1.64 µM and 2.06 µM; in experiment [9] it was 1.79 µM and 1.75 µM; in experiment [10] it was 1.54 µM and 0.925 µM. Further, the TGI in experiment [1] was 3.01 µM and 2.51 µM; in experiment [2], 3.31 µM and 4.55 µM; in [3], 3.54 µM and 2.76 µM; in experiment [4], 3.74 µM and 1.61 µM; in [5] it was 6.03 µM and 4.11 µM; in experiment [6], 4.17 µM and 6.9 µM. In addition, the TGI in experiment [7] is 2.1 µM and 2.62 µM; in experiment [8], 3.42 µM and 4.02 µM; in experiment [9] it was 3.79 µM and 3.38 µM; in experiment [10], 6.12 µM and 2.36 µM.

On to `O=c1c2sc(=S)n(-c3ccc(F)cc3)c2ncn1Cc1ccc(F)cc1F`, for which the GI50 in experiment [1] is more than 100 µM; in experiment [2], 76 µM; in [3], 81.9 µM; in experiment [4] it was more than 100 µM; in experiment [5] it was more than 100 µM; in experiment [6] it was 75.8 µM. For the same compound, the GI50 was more than 100 µM in experiment [7], more than 100 µM in experiment [8], more than 100 µM in [9] and 81.8 µM in [10]. The TGI in [1], in [2], in [3], in experiment [4], in [5] and in experiment [6] was more than 100 µM each time. In addition, the TGI in [7], in experiment [8], in experiment [9] and in experiment [10] was more than 100 µM in each case.

Turning to `COc1cc(C#CC(=O)OC/C=C/c2ccc3c(c2)OCO3)cc(OC)c1OC`, the TGI in [1] is 30.2 µM; in experiment [2], 59.5 µM; in [3], more than 100 µM; in [4] it was 70.9 µM; in experiment [5], 76.9 µM; in experiment [6], more than 100 µM. For the same compound, the TGI in experiment [7] was 78.8 µM; in experiment [8] it was more than 100 µM; in experiment [9], 52.3 µM; in [10], more than 100 µM.

Turning to `[Cl][Hg][c]1cc(Br)cc(Br)c1`, the GI50 in [1] is 1.45 µM; in experiment [2] it was 1.76 µM; in experiment [3] it was 3.31 µM; in experiment [4] it was 10 µM; in [5] it was 2.21 µM; in experiment [6] it was 1.2 µM. The GI50 in experiment [7] is 1.6 µM; in experiment [8], 2 µM; in experiment [9], 1.95 µM; in experiment [10] it was 3.41 µM. The TGI worked out at 2.85 µM in [1]; 4.28 µM in experiment [2]; 15.7 µM in experiment [3]; 21.6 µM in experiment [4]; 4.78 µM in experiment [5]; 2.51 µM in experiment [6]. The TGI came out at 3.22 µM in experiment [7], 7.88 µM in [8], 5.47 µM in experiment [9] and 13.4 µM in experiment [10].

Regarding `CCN(CC)CCC(CNc1ccnc2cc(Cl)ccc12)c1ccc(OC)cc1` (stereo not given), the GI50 is 3.5 µM and 2.26 µM in experiment [1]; 4.19 µM and 5.23 µM in experiment [2]; 2.87 µM and 1.95 µM in experiment [3]; 2.19 µM and 1.72 µM in experiment [4]; 6.44 µM and 12.7 µM in experiment [5]; 10.3 µM and 11 µM in [6]. The GI50 in experiment [7] was 3.06 µM and 3.51 µM; in experiment [8], 2.59 µM and 2.73 µM; in experiment [9], 8.14 µM and 8.47 µM; in [10], 5.15 µM and 1.87 µM. For the same compound, the TGI in [1] was 15.6 µM and 5.16 µM; in [2] it was 18.4 µM and 21.4 µM; in experiment [3], 10.2 µM and 7.8 µM; in experiment [4], 3.96 µM and 3.48 µM; in experiment [5], 57.7 µM and > 100 µM; in experiment [6], 29 µM and 29.9 µM. The TGI in [7] was 12.3 µM and 16.5 µM; in experiment [8] it was 6.66 µM and 7.85 µM; in experiment [9] it was 23.4 µM and 22.6 µM; in [10] it was 24.7 µM and 14.4 µM.

As for `O=C(Nc1ccc(Cl)cc1F)c1ccccc1O`, the GI50 was 3.23 µM in experiment [1]; 3.63 µM in experiment [2]; 2.35 µM in experiment [3]; 2.9 µM in [4]; 1.96 µM in experiment [5]; 3.23 µM in experiment [6]. Moreover, the GI50 in experiment [7] was 1.92 µM; in experiment [8], 2.49 µM; in experiment [9] it was 2.88 µM; in experiment [10], 3.15 µM. In addition, the TGI in [1] is 11.2 µM; in [2] it was more than 100 µM; in [3] it was 5.87 µM; in experiment [4] it was 8.86 µM; in [5], 12.5 µM; in experiment [6] it was more than 100 µM. Also, the TGI is 14.2 µM in experiment [7], more than 100 µM in experiment [8], 9.88 µM in [9] and 11.3 µM in experiment [10].
